Earlier results as cited in publication PMC7357848 (Journal of Chemical Information and Modeling, 2020).

Tested on: hERG
Settings: IC50 with SP over IC50 with Protocol-O; ref 5 (Yao et al. 2005)

BeKm-1
IC50 ratio: 10.3
